Test results from patent US11578343B2, “CAS9 proteins including ligand-dependent inteins” (President and Fellows of Harvard College, priority 2014, dated 2023).

System: HEK293-GFP stable cells
Assay: Western blot analysis of intein splicing
Assay type: cell-based, human
Conditions: FIG. 6
Description: FIGS. 6A-6B. […] 12 h after transfection, cells were treated with or without 4-HT (1 μM). Cells were lysed and pooled from three technical replicates 4, 8, 12, or 24 h after 4-HT treatment. An anti-FLAG antibody (Sigma-Aldrich F1804) and an anti-mouse 800CW IRDye (LI-COR) were used to visualize the gel. Lanes 1 and 2 contain purified dCas9-VP64-3×FLAG protein and lysate from untransfected HEK293 cells, respectively.
Western blot analysis of intein splicing. HEK293-GFP stable cells were transfected with 500 ng Cas9 expression plasmid and 125 ng sgRNA expression plasmid. 12 h after transfection, the media was replaced with full serum media, with or without 4-HT (1 μM). Cells were lysed and pooled from three technical replicates 4, 8, 12, or 24 h after 4-HT treatment. Samples were run on a Bolt 4-12% Bis-Tris gel (Life Technologies). An anti-FLAG antibody (Sigma-Aldrich F1804) and an anti-mouse 800CW IRDye (LI-COR) were used to visualize the gel on an Odyssey IR imager.

Substance: intein(Ser219)-Cas9: Cas9 with 37R3-2 intein replacing Ser219 (SEQ ID NO: 30)
- Spliced product (Western blot) (absence of 4-HT): no spliced product was detected
- Spliced product (Western blot) (earliest assayed time point (4 h) following 4-HT treatment (1 μM)): presence of spliced product
